Test results from patent publication US20170056380A1, “Systems, Methods, Techniques, and Compounds in Research and Treatment of Portal Hypertension and other Conditions” (priority 2014, published 2017).

What was measured:
protein kinase G (PKG) = assay: Phospho-VASP immunoblotting for PKG activity in stellate cells alone or cocultured with sinusoidal endothelial cells; assay type: cell-based, rat; settings: coculture, L-NAME 1 μM 4 h, then cicletanine 100 nM
Method: For coculture experiments, freshly isolated stellate cells and freshly isolated sinusoidal endothelial cells were isolated separately and mixed together on collagen-coated plates and cultured for 5 days. Sinusoidal endothelial cells were plated at a density of 200,000 cells/cm2, and stellate cells were at a density of 65,000 cells/cm2.
(§1) Immunoblotting, Immunoblotting was performed by using specified primary antibodies, including anti-eNOS antibody (1:1,000; BD Transduction Laboratories, San Jose, Calif.), anti-phospho-eNOS-Ser^1177 (1:1,000; BD Transduction Laboratories or Cell Signaling Technology), anti-phospho-Akt, anti-Akt (Cell Signaling Technology, Beverly, Mass.), and horseradish peroxidase-conjugated secondary antibody. Specific signals were visualized using enhanced chemiluminescence as per the manufacturer's instructions and were scanned and quantitated with standard software.

[1] = system: NO production in sinusoidal endothelial cells; assay: NO measurement (nitrite in conditioned medium of sinusoidal endothelial cells); assay type: cell-based, rat; settings: for effect on cicletanine-induced NO production: PD-98059 10 μM 30 min, then cicletanine 100 nM 2 h
Method: (§2) Cell isolation and culture. Sinusoidal endothelial cells were isolated from male Sprague-Dawley rats (450-500 g) (Harlan, Indianapolis, Ind.). In brief, after in situ perfusion of the liver with 20 mg/100 mg pronase (Roche Molecular Biochemicals, Indianapolis, Ind.), followed by collagenase (Worthington Biochemical, Lakewood, N.J.), dispersed cell suspensions were removed from a layered discontinuous density gradient of 8.2 and 15.6% Accudenz (Accurate Chemical and Scientific, Westbury, N.Y.), further purified by centrifugal elutriation (18 ml/min flow), and were grown in medium containing 20% serum (10% horse/calf). The purity of endothelial cells was documented by their uptake of fluorescently labeled di-l-acetoacetylated low-density lipoprotein as described (21). Only primary sinusoidal endothelial isolates of >95% purity were used for study. Experiments were performed with cells frorrr a minimum three different isolations (for all experiments).
(§3) Animal model of liver injury and portal hypedension. Liver injury and portal hypertension were induced by performing bile duct ligation in 450- to 500-gram male retired breeder Sprague-Dawley rats as described in Liu and 20- to 25-gram male BALB/c mice. Briefly, bile duct ligation was performed by surgical isolation and ligation of the common bile duct. This model creates a portal-based fibrogenic response and portal hypertension 10-14 days after surgery (Liu). For study of injured sinusoidal endothelial cells, we used the rat model of bile duct ligation (10-14 days postsurgery); for in vivo study (primarily to conserve the use of active compound), we used the mouse model of bile duct ligation (examining portal pressure 4 wk postsurgery). In sham-operated rats or mice, laparotomy without isolation and section of the bile duct was performed. Studies were approved by the local Institutional Animal Care and Use Committees. Portal pressure measurement. Portal hypertension was induced in male BALB/c mice by bile duct ligation as above. Cicletanine (5 mg·kg^−1·day^−1) or vehicle was given by gavage as a single daily dose for 10 days before portal pressure measurement as described in Liue. In brief, mice were anesthetized, and an intravenous catheter (Becton Dickinson Vascular Access, Sandy, Utah) was introduced in the portal vein and secured with a silk tie. A calibrated low-pressure transducer (Digi-Med, Louisville, Ky.) was connected to the portal vein catheter, and portal pressure was recorded continuously using the Digi-Med Integrator 200 System (Digi-bled).
NO measurement. To assess NO production, we analyzed the release of nitrite, the stable breakdown product of NO, using a nitrite/nitrate assay kit (Cayman Chemicals, Ann Arbor, Mich.), following the manufacturer's instructions. Briefly, conditioned medium from sinusoidal endothelial cells with or without cicletanine treatment were loaded on a 96-well plate and mixed with both enzyme cofactor and nitrate reductase. After incubation at room temperature for 3 h, 100 μl Griess reagent mix were added to each well. After 10 more minutes at room temperature, the absorbance of each well was determined on a microplate reader at 540 nm, and the nitrite concentrations were deduced from a standard curve.

eNOS [2] = target: T1, eNOS (Rattus norvegicus, UniProt Q62600); assay: NOS activity assay (conversion of L-[3H]arginine to L-[3H]citrulline) in sinusoidal endothelial cell lysates; assay type: cell-based; settings: cicletanine 100 nM plus inhibitor
T1 construct: endogenous in cells; host or cells: primary liver sinusoidal endothelial cells from male Sprague-Dawley rats (normal or bile-duct-ligated)
T1 sequence (Q62600 1-1202): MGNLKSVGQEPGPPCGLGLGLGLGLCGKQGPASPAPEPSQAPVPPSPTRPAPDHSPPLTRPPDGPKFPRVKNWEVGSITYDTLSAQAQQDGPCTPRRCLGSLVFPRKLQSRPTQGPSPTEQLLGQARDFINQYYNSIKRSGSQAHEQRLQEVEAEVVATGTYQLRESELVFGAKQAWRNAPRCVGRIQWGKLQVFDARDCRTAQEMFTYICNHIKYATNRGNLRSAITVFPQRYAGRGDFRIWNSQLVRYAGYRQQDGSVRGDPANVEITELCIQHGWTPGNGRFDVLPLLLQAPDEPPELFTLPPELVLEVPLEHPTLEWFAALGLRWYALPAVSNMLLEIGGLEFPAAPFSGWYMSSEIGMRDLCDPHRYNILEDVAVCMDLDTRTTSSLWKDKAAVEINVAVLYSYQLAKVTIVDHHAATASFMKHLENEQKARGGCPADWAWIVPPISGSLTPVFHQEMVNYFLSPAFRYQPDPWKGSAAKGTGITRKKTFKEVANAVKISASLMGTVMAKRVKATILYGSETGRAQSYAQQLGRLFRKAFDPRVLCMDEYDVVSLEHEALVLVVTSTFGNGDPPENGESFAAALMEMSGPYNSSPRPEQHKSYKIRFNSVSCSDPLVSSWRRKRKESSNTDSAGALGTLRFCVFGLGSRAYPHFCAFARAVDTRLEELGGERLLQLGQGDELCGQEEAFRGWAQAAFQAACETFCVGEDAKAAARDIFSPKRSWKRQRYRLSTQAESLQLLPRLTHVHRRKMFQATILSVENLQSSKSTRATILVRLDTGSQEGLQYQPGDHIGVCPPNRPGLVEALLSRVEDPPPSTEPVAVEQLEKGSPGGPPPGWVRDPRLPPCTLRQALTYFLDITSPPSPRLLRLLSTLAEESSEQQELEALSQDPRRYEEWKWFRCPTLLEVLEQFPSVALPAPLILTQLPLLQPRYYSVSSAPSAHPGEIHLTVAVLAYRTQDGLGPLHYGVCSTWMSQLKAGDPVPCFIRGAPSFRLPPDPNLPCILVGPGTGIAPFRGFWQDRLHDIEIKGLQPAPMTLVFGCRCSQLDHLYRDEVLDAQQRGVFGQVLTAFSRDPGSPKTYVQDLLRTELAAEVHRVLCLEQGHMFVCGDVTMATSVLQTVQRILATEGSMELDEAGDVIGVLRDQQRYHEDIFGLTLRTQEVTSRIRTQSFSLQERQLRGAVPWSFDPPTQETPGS
Method: as §2, §3
NOS activity assay. NOS activity from sinusoidal endothelial cell lysates was assessed by measuring the conversion of L-[3H]arginine to L-[3H]citrulline as described (6) per the manufacturer's instructions (Cayman Chemical). In brief, triplicate samples of cell lysates were incubated with a reaction buffer containing 3 pmol of L-[3H]arginine (45 Ci/mmol), 0-50 μM arginine, 1 mM NADPH, 100 nM calmodulin (CaM), 2 mM CaCl2, and 30 μM BH4 in a volume of 50-100 μl at room temperature for 30 min and at 37° C. for an additional 30 min in the presence and absence of 1 mM NG-nitro-L-arginine methyl ester (L-NAME). […] Radiolabeled counts per minute of generated L-citrulline were measured and used to determine L-NAME-inhibitable NOS activity (thus, each experiment included total counts and background counts). […] The reductase activities of sinusoidal endothelial cells with or without cicletanine exposure were determined using the NADPH-dependent cytochrome c assay. […]

eNOS [3] = assay: eNOS phosphorylation (Ser1177) and total eNOS by immunoblotting in sinusoidal endothelial cells; assay type: cell-based, rat; settings: PD-98059 10 μM 30 min, then cicletanine 100 nM 2 h
Method: as §2, §1, §3

For `COC(=O)[C@@H](N)CCCNC(=N)N[N+](=O)[O-]` [L-NAME, NG-nitro-L-arginine methyl ester], the “effect on cicletanine-stimulated VASP phosphorylation” value (protein kinase G (PKG)) was “inhibited”, the “effect on nitrite production” value ([1]; L-NAME 1 μM preexposure 4 h, then cicletanine 2 h) was “inhibited” and the “effect on cicletanine-induced eNOS activity” value (eNOS [2]) was “inhibitable”.
For `COc1cccc(-c2cc(=O)c3ccccc3o2)c1N` [PD-98059], the “effect on cicletanine-induced NO production” value [1] was “blocked”, the “effect on cicletanine-induced NO production” value ([1]; listed as PD-098059) was “abolished” and the “effect on cicletanine-induced eNOS phosphorylation” value (eNOS [3]) was “blocked”. For the same compound, the “effect on cicletanine-induced eNOS phosphorylation” value (eNOS [3]; listed as PD-098059) was “abolished”.
In the case of `Cc1ncc2c(c1O)COC2c1ccc(Cl)cc1` (centres unmarked) [S-cicletanine], the “production of nitrite, (+) isomer compared with (−) isomer” value ([1]; comparison of isomers) is reported as “more effective than the (−) isomer of cicletanine”.
